Source: patent publication US7326721B2 (Hypnion, Inc., priority 2003, dated 2008)
Like-named read-outs stand apart in the source and are kept apart here.

Legend:
[1] = target: T1, H1 histamine receptor (Bos taurus, UniProt P30546); assay: Histamine H1 competitive binding assay ([3H]pyrilamine); design: species or system bovine
T1 construct: the receptors were obtained from bovine cerebellar membrane tissue; from tissue; host or cells: bovine cerebellar membranes

[2] = target: T2, M1 muscarinic receptor (Homo sapiens, UniProt P11229); assay: Muscarinic M1 binding assay ([3H]-scopolamine, N-methyl chloride); design: purchased PerkinElmer, Inc., Wellesley, Mass; host or cells: CHO cells; settings: read-out: Ki M1
T2 sequence (P11229 1-460): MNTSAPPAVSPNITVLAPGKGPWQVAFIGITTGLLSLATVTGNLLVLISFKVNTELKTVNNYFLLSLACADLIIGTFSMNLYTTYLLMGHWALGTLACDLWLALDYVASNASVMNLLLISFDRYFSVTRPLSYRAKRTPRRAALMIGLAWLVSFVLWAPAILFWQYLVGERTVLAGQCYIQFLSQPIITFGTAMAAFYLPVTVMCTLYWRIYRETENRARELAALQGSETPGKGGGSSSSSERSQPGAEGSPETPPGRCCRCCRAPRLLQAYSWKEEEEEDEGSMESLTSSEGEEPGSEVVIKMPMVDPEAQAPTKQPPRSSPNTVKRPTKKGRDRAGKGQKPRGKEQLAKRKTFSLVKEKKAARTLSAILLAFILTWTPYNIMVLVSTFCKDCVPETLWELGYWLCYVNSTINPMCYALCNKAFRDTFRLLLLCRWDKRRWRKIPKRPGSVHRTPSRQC

[3] = target: hERG (Homo sapiens, UniProt Q12809)
Chain of hERG (Q12809 whole entry): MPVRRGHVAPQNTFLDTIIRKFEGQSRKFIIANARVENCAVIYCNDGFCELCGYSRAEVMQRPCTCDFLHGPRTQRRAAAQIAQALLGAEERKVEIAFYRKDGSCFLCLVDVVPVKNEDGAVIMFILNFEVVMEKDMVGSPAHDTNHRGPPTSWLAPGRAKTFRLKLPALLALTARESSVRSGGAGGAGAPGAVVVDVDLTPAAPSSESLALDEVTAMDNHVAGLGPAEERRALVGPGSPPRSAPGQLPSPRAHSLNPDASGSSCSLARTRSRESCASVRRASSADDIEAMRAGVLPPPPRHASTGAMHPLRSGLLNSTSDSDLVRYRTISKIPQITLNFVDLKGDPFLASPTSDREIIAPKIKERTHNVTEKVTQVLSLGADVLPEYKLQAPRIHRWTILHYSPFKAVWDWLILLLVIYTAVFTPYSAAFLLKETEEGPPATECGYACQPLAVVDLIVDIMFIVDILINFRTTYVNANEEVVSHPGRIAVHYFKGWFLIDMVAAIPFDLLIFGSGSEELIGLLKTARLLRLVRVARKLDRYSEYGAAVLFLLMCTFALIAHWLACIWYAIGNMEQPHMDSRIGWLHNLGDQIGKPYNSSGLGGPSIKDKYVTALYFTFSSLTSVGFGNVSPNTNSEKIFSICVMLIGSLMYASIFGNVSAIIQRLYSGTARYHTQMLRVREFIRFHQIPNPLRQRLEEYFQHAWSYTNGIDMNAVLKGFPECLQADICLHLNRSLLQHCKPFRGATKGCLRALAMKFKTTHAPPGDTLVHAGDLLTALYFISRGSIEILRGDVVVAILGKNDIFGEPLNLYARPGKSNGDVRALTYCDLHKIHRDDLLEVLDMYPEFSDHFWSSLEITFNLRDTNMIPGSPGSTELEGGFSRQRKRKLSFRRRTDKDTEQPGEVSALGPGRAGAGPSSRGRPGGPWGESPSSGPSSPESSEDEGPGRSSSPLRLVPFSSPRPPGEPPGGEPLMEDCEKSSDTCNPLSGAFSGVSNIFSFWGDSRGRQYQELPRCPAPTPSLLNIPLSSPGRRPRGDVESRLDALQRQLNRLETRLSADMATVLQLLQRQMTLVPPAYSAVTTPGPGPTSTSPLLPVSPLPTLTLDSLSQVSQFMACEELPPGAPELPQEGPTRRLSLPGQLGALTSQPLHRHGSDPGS

[4] = test system: adult male Wistar rats; assay: SCORE-2000 sleep-wakefulness, locomotor activity and body temperature monitoring; assay type: in vivo, rat
[5] = target: T3, M3 muscarinic receptor (Homo sapiens, UniProt P20309); assay: Muscarinic M3 binding assay; design: purchased PerkinElmer, Inc., Wellesley, Mass; host or cells: CHO cells; settings: read-out: Ki M3
T3 sequence (P20309 whole entry): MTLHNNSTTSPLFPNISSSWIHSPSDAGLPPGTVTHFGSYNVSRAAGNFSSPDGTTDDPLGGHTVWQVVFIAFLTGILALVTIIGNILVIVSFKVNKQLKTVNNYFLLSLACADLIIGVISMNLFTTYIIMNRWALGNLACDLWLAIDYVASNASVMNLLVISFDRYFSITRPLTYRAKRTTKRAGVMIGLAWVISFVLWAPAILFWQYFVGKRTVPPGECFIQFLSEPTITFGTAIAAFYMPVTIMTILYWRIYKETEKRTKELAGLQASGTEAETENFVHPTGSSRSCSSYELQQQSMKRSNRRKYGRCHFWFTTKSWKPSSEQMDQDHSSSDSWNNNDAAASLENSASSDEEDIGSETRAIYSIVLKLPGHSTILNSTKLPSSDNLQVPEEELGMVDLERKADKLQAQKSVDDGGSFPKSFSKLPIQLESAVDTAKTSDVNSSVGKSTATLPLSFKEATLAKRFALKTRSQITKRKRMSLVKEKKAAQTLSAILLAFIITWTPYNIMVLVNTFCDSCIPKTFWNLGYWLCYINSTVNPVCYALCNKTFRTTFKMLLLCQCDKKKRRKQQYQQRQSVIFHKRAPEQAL

[6] = target: T4, M2 muscarinic receptor (Homo sapiens, UniProt P08172); assay: Muscarinic M2 binding assay; design: purchased PerkinElmer, Inc., Wellesley, Mass; host or cells: CHO cells; settings: read-out: Ki M2
T4 sequence (P08172 1-466): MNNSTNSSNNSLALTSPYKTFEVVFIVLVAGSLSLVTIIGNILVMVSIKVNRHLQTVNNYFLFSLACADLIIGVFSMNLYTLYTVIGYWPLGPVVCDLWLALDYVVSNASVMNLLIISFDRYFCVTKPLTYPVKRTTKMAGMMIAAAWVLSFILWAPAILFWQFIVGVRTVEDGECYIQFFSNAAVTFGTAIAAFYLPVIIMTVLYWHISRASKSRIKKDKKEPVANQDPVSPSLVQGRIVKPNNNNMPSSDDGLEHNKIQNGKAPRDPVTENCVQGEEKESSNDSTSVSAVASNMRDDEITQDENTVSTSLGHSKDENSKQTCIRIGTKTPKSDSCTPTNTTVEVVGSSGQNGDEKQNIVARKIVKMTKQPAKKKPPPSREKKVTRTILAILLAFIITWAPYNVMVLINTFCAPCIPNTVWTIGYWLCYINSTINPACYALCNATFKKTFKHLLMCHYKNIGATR

[7] = test system: male Wistar rats; assay type: in vivo
Experimental: The Irwin screen can provide useful information on potential side effects of compounds on general physiological and behavioural functions. The screen was conducted by administering the test compounds orally in 0.25% aqueous methylcellulose using male Wistar rats, a frequently used species in such studies and for which background data are readily available.
The Irwin screen tests for numerous parameters in animals that have been administered the test compound. For example, the screen can include: in-cage effects, e.g., dispersion, respiratory rate, locomotor activity, restlessness, fighting, alertness, apathy, and exophthalmus; in-arena effects, e.g., transfer arousal, spatial locomotion, ptosis, startle, tail elevation, piloerection, touch escape, positional passivity, catalepsy, tighting reflex, visual placing, grip strength, pinna, corneal, pain response, and wire manoeuvre; parameters observed in handling, e.g., cyanosis, cutaneous blood flow, hypothermia, body tone, pupil size, light-pupil response, lacrimation, grooming, red staining, salivation, and provoked biting; general scores e.g., fearfulness, irritability, abnormal gait, abnormal body carriage, tremors, twitches, convulsions, bizarre behaviour, writhing, vocalisation, diarrhoea, number of defaecations, number of urinations, moribund, lethality, and abnormalities detected. Further details can be found in Irwin, S; Comprehensive observational assessment: I a. A systematic, quantitative procedure for assessing the behavioural and physiological state of the mouse.
Irwin screening of the disclosed sleep-inducing agents was performed by Covance (Princeton, N.J.) according to Irwin, above; Covance Standard Operating Procedure (current revision of SOP PHARM 8.10); relevant regulatory authority guidelines ICH (International Committee for Harmonization) Guideline (Topic S7A; CPMP/ICH/539/00) on Safety Pharmacology Studies for human pharmaceuticals (November 2000); and all procedures carried out on live animals were subject to the provisions of United Kingdom Law, in particular the Animals (Scientific Procedures) Act, 1986. which obliges all UK laboratories to maintain a local ethical review process to ensure that all animal use in the establishment is carefully considered and justified; that proper account is taken of all possibilities for reduction, refinement or replacement and that high standards of accommodation and care are achieved.
All test compound formulations were prepared on the day of dosing by Covance Harrogate Dispensary. The test compounds were formulated in 0.25% aqueous methylcellulose at the highest concentration required. Lower doses were obtained by serial dilution of the highest concentration using 0.25% aqueous methylcellulose. Dose levels are expressed in terms of the amount of test compound administered without regard to purity or active content. All formulations were stored at room temperature (nominally 10 to 30° C.) in sealed containers and protected from light.
An adequate number of male Wistar (Crl:WI(Glx/BRL/Han) BR:WH) rats were obtained from Charles River Ltd. (Margate, Kent, United Kingdom). The rats were approximately 5 weeks of age and weighed between 150 and 170 g on arrival. The animals were housed in groups of no more than six in polypropylene cages (33×15×13 cm) or (45×28×20 cm) with solid floors and Grade 10 woodflakes (Datesand Ltd., Cheshire, United Kingdom) as bedding. The cages were cleaned and dried before use. Aspen chew blocks were placed within the cages as a form of environmental enrichment. Routinely, holding rooms were maintained within acceptable limits for temperature and relative humidity (nominally 19 to 25° C. and 40% to 70%, respectively). These rooms were illuminated by fluorescent light for 12 hours out of each 24 hour cycle and designed to receive at least 15 fresh air changes per hour. […]

[8] = target: Adrenergic, Alpha 1, Non-selective; assay: Table 12 panel: Adrenergic, Alpha 1; assay type: binding; settings: read-out: α1 binding
[9] = target: Dopamine, D1 (UniProt P21728); assay: Dopamine, D1 (human recombinant) binding assay
[10] = target: human H1 receptor (Homo sapiens, UniProt P35367); assay: H1(hR) binding (Table 28)
Chain of human H1 receptor (P35367 whole entry): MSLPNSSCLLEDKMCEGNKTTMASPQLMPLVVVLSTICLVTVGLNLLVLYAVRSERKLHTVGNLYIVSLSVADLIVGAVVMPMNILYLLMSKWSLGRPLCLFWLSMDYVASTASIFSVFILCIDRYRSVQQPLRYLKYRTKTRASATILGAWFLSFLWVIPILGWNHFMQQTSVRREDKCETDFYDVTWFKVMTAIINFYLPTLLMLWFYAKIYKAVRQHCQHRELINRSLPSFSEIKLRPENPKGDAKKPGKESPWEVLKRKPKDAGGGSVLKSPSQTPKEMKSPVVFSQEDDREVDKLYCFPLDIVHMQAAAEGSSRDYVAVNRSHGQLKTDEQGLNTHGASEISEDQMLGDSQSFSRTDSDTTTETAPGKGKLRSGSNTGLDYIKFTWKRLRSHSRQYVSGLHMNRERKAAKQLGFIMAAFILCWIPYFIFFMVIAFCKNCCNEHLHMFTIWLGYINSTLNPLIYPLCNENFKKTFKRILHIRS
Experimental: (§1) The comparative data is shown in Table 28, unless otherwise noted, binding was measured with the bovine receptors, H1(hR) is the human H1 receptor, 5HT2a (h) is the human 5HT2a receptor. Binding numbers are presented in nM values.

[11] = target: human 5HT2a receptor (Homo sapiens, UniProt P28223); assay: 5HT2a (h) binding (Table 28)
Chain of human 5HT2a receptor (P28223 whole entry): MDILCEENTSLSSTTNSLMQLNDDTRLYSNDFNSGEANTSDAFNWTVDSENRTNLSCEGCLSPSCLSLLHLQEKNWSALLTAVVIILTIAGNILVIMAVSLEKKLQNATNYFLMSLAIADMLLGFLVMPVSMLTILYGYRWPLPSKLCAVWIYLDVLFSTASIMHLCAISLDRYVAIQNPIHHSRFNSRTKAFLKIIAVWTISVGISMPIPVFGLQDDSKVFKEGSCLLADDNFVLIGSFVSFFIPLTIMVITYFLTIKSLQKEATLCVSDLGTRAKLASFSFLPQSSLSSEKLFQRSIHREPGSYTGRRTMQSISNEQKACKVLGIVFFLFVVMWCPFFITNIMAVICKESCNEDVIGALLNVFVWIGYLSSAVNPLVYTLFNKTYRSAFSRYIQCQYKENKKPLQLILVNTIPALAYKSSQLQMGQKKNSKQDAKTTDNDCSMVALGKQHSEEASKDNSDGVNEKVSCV

[12] = target: Adrenergic, Alpha 2, Non-selective; assay: Table 12 panel: Adrenergic, Alpha 2; assay type: binding; settings: read-out: α2 binding
[13] = target: T4, M2 muscarinic receptor; assay: Muscarinic M2 binding assay
[14] = target: 5HT2a (rat) (Rattus norvegicus, UniProt P14842); assay: 5HT2a (rat) binding (Table 28)
Chain of 5HT2a (rat) (P14842 whole entry): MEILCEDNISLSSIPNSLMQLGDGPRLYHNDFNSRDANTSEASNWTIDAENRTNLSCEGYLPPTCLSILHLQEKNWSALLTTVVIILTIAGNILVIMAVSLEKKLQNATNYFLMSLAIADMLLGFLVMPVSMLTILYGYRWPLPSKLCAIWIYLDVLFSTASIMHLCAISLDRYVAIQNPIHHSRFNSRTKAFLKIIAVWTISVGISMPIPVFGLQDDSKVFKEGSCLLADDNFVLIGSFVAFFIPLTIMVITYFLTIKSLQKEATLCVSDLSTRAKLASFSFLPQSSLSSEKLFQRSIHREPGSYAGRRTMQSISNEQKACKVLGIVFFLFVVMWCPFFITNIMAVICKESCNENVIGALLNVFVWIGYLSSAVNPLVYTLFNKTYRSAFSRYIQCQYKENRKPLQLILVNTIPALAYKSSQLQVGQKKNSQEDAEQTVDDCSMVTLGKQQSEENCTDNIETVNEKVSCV
Experimental: as §1

[15] = target: Dopamine, D1 (human recombinant) (UniProt P14416); assay: Dopamine D2 binding assay (printed as D1 in b555)
Experimental: In vitro binding assays are used to determine H1 binding (i.e., primary target binding) and M1, M2 and M3 binding (i.e., off target binding). […] Similar assays are performed with H1 and dopamine receptors (D1 and D2), and with H1 and adrenergic receptors (α1 and α2).
Dopamine, D1 (human recombinant) binding assay was performed according to published procedures. See, e.g., Jarvie, et al. J. Recept Res., 13(1–4): 573–90 (1993); and Gundlach, et al. Life Sciences, 35(19): 1981–8 (1984) with modifications

[16] = target: T2, M1 muscarinic receptor; assay: Muscarinic M1 binding assay ([3H]-scopolamine, N-methyl chloride)
[17] = target: T3, M3 muscarinic receptor; assay: Muscarinic M3 binding assay
[18] = bovine receptor, read-out: H1 binding

T1 sequence (P30546 whole entry): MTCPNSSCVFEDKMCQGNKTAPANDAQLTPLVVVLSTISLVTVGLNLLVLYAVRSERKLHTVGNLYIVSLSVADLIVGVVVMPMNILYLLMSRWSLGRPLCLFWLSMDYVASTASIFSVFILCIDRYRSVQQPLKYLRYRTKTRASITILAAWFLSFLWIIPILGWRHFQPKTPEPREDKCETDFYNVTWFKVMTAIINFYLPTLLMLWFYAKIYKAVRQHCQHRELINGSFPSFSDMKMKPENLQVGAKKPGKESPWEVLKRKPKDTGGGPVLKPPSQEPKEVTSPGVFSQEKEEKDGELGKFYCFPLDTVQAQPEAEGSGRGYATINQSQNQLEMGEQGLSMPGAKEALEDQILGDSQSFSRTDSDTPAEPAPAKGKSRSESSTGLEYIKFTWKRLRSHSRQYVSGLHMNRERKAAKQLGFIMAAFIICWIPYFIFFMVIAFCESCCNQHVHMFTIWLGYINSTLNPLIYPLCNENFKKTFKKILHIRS

SMILES | Ki [1, 18] [µM] | Ki [8] [µM] | Ki [9] [µM] | Ki [10] [µM] | Ki [11] [µM] | Ki [12] [µM] | Ki [13] [µM] | Ki [14] [µM] | Ki [16] [µM] | also measured
O=C(O)CN1CCC(=C2c3ccccc3COc3ccccc32)CC1 [Compound 71e] | – | – | – | – | – | – | – | – | – | Ki ([1]; read-out: Ki H1): 0.0607 µM; Ki [2]: 12.1 µM; hERG at micromolar (% blocking of the hERG channel) [3]: 3.6% @ 1; LUSB ([4]; dose 30 mg/kg oral at CT-18): 4.1 min; NREM ([4]; dose 30 mg/kg oral at CT-18): 34.5 min; Ki [5]: > 10 µM; Ki [6]: 5.13 µM; Irwin at mg/kg dose ([7]; 30 mg/kg oral): clean; Irwin at mg/kg dose ([7]; 100 mg/kg oral): many side effects; Irwin at mg/kg dose ([7]; rat, in vivo): 10, 30 clean; 100 many side effects
COc1ccc2c(c1)COc1ccc(F)cc1C2=C1CCN(CCC(=O)O)CC1 [Compound 10518] | 0.0523 | 2.85 | > 10 | 0.035 | 0.422 | > 10 | > 10 | 0.197 | > 10 | HERG ([3]; human, 10 µM, pH 7.4): 3.90%; LUSB 3 mg/kg ([4]; 3 mg/kg): 6.7 ± 2.3; LUSB 10 mg/kg ([4]; 10 mg/kg): 7.9 ± 1.7; NREM cumul. 10 mpk ([4]; 10 mpk): 46 ± 7; Ki [15]: > 10 µM
COc1ccc2c(c1)COc1ccc(F)cc1C2=C1CCN(CC2(C(=O)O)CC2)CC1 [Compound 10519] | 0.0198 | > 10 | > 10 | 0.034 | 0.541 | > 10 | > 10 | 0.056 | > 10 | HERG [3]: 6.10%; Ki [17]: > 10 µM
